Blank lines part the entries; values can stand above or below the compound they belong to.
Tests used:
[1] = target: Calcium/calmodulin-dependent protein kinase kinase 2 (Homo sapiens, UniProt Q96RR4); experiment: Induction of ePL tagged degradation of CaMKK2 (unknown origin) expressed in […] cells incubated for 24 hrs by luminescence based analysis; type: cell-based, HEK293T
[2] = target: Calcium/calmodulin-dependent protein kinase kinase 1 (Homo sapiens, UniProt Q8N5S9); experiment: Inhibition of CaMKK1 (unknown origin) incubated for 20 mins in presence of kinase tracer 236 by TR-FRET
Calcium/calmodulin-dependent protein kinase kinase 1, sequence (Q8N5S9 whole entry): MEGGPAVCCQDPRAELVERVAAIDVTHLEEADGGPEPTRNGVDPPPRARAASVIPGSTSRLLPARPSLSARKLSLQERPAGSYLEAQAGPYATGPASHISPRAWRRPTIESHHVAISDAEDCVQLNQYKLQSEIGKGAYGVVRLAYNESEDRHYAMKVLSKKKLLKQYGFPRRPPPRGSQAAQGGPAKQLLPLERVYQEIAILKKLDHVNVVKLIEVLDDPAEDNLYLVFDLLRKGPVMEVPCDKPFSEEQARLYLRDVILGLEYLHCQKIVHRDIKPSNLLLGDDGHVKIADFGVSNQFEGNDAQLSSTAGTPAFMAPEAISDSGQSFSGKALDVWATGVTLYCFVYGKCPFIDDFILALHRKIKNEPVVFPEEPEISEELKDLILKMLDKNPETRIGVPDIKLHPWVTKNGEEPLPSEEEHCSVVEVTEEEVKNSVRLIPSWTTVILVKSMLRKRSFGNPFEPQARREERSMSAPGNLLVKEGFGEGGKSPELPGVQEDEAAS

[3] = Bioavailability in C57BL/6 mouse at 10 mg/kg, sc measured upto 72 hrs; type: ADME, organism-based; details: in vivo
[4] = Half life in C57BL/6 mouse at 10 mg/kg, po measured upto 72 hrs; type: ADME, organism-based; details: in vivo
[5] = Cmax in C57BL/6 mouse at 10 mg/kg, po measured upto 72 hrs; type: ADME, organism-based; parameters: time < 72 hrs, dose 10 mg/kg, route po; details: in vivo
[6] = Tmax in C57BL/6 mouse at 10 mg/kg, sc measured upto 72 hrs; type: ADME, organism-based; details: in vivo
[7] = AUC (0 to 24 hrs) in C57BL/6 mouse at 10 mg/kg, sc measured upto 72 hrs; type: ADME, organism-based; parameters: time < 72 hrs, dose 10 mg/kg, route sc; details: in vivo
[8] = Tmax in C57BL/6 mouse at 10 mg/kg, po measured upto 72 hrs; type: ADME, organism-based; details: in vivo
A-427 = experiment: Antiproliferative activity against human A-427 cells assessed as reduction in cell growth incubated for 48 hrs by CellTiter assay; details: A-427, 48 h
[9] = Half life in C57BL/6 mouse at 10 mg/kg, sc measured upto 72 hrs; type: ADME, organism-based; details: in vivo
[10] = AUC (0 to 24 hrs) in C57BL/6 mouse at 10 mg/kg, po measured upto 72 hrs; type: ADME, organism-based; parameters: dose 10 mg/kg, time < 72 hrs, route po; details: in vivo
[11] = target: Von Hippel-Lindau disease tumor suppressor/Elongin B/Elongin C (Homo sapiens, UniProt P40337); experiment: Binding affinity to N-terminal 6 his tagged VHL (54 to 213 residues)/truncated ElonginC (17 to 122 residues) /full length ElonginB (unknown origin) expressed in Escherichia coli assessed as dissociation constant measured upto 300 secs by SPR analysis
Von Hippel-Lindau disease tumor suppressor/Elongin B/Elongin C, sequence (P40337 whole entry, looked up, the tested form may be a part): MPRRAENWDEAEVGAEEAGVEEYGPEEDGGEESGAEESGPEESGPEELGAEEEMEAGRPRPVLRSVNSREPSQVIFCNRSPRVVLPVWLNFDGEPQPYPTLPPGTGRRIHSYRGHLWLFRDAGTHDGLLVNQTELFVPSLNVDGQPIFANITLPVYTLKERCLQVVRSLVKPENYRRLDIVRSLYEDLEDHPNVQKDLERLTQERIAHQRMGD

[12] = Oral bioavailability in C57BL/6 mouse at 10 mg/kg measured upto 72 hrs; type: ADME, organism-based; details: in vivo
[13] = Cmax in C57BL/6 mouse at 10 mg/kg, sc measured upto 72 hrs; type: ADME, organism-based; parameters: dose 10 mg/kg, time < 72 hrs, route sc; details: in vivo
[14] = AUC (0 to 24 hrs) in Sprague-Dawley rat at 3 mg/kg, po or 1 mg/kg, iv measured upto 24 hrs; type: ADME, organism-based; parameters: time < 24 hrs, dose 3 mg/kg, route po; details: in vivo
[15] = AUC (0 to 72 hrs) in Beagle dog at 3 mg/kg, po or 1 mg/kg, iv measured upto 72 hrs; type: ADME, organism-based, Canis lupus familiaris; parameters: dose 3 mg/kg, time < 72 hrs, route po; details: in vivo
[16] = Plasma protein binding in Cynomolgus monkey; type: ADME, cell-free, Macaca fascicularis; details: read-out: PPB (converted)
[17] = Bioavailability in Beagle dog at 3 mg/kg, po or 1 mg/kg, iv measured upto 72 hrs; type: ADME, organism-based, Canis lupus familiaris; details: in vivo
[18] = Plasma protein binding in human; type: ADME, cell-free; parameters: dose or concentration left out as unconfirmed; details: route po, read-out: PPB (converted)
[19] = Plasma protein binding in Sprague-Dawley rat; type: ADME, cell-free; details: read-out: PPB (converted)
[20] = Cmax in Cynomolgus monkey at 3 mg/kg, po or 1 mg/kg, iv measured upto 72 hrs; type: ADME, organism-based, Macaca fascicularis; parameters: time < 72 hrs, dose 3 mg/kg, route po; details: in vivo
[21] = Half life in Cynomolgus monkey at 3 mg/kg, po or 1 mg/kg, iv measured upto 72 hrs; type: ADME, organism-based, Macaca fascicularis; details: in vivo
[22] = Volume of distribution in steady state in Beagle dog at 3 mg/kg, po or 1 mg/kg, iv measured upto 72 hrs; type: ADME, organism-based, Canis lupus familiaris; details: in vivo
[23] = Tmax in Cynomolgus monkey at 3 mg/kg, po or 1 mg/kg, iv measured upto 72 hrs; type: ADME, organism-based, Macaca fascicularis; details: in vivo
[24] = Half life in Sprague-Dawley rat at 3 mg/kg, po or 1 mg/kg, iv measured upto 24 hrs; type: ADME, organism-based; details: in vivo
[25] = Bioavailability in Cynomolgus monkey at 3 mg/kg, po or 1 mg/kg, iv measured upto 72 hrs; type: ADME, organism-based, Macaca fascicularis; details: in vivo
[26] = Plasma protein binding in Beagle dog; type: ADME, cell-free, Canis lupus familiaris; details: read-out: PPB (converted)
[27] = AUC (0 to 72 hrs) in Cynomolgus monkey at 3 mg/kg, po or 1 mg/kg, iv measured upto 72 hrs; type: ADME, organism-based, Macaca fascicularis; parameters: dose 3 mg/kg, time < 72 hrs, route po; details: in vivo
[28] = Tmax in Sprague-Dawley rat at 3 mg/kg, po or 1 mg/kg, iv measured upto 24 hrs; type: ADME, organism-based; details: in vivo
[29] = Bioavailability in Sprague-Dawley rat 3 mg/kg, po or 1 mg/kg, iv measured upto 24 hrs; type: ADME, organism-based; details: in vivo
[30] = Cmax in Sprague-Dawley rat at 3 mg/kg, po or 1 mg/kg, iv measured upto 24 hrs; type: ADME, organism-based; parameters: dose 3 mg/kg, time < 24 hrs, route po; details: in vivo
[31] = target: Voltage-gated inwardly rectifying potassium channel KCNH2 (Homo sapiens, UniProt Q12809); experiment: Inhibition of human ERG; type: toxicity
Voltage-gated inwardly rectifying potassium channel KCNH2, sequence (Q12809 whole entry): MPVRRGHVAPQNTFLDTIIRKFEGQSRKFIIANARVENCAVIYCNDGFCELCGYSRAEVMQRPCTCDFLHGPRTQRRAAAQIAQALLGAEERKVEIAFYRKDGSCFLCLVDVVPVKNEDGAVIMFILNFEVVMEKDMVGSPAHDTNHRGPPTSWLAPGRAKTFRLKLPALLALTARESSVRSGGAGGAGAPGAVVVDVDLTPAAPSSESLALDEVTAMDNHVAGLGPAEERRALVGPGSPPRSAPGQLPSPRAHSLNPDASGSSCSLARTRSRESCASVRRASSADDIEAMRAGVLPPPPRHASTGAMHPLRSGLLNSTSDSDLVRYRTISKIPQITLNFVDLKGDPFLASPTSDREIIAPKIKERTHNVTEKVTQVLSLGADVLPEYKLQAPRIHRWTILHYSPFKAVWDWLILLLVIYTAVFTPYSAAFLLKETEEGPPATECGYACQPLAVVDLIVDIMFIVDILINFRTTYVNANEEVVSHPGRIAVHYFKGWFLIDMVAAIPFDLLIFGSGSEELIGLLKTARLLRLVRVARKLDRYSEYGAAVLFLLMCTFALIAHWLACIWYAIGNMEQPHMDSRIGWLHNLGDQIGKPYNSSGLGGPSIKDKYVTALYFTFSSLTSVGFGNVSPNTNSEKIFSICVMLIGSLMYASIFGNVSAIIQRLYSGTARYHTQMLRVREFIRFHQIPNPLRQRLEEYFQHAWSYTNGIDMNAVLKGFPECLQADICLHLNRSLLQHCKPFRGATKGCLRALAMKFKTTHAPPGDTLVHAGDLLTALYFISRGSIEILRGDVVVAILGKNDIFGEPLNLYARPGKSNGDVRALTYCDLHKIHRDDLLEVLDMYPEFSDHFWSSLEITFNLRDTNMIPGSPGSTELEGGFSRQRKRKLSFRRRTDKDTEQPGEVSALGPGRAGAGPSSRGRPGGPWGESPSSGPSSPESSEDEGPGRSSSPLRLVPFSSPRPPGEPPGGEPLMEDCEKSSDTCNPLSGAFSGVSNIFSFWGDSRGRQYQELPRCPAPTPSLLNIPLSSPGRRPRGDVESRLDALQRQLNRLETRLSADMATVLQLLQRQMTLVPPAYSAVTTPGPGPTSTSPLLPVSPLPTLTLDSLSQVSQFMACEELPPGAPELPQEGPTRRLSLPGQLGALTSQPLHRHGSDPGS

[32] = Half life in Beagle dog at 3 mg/kg, po or 1 mg/kg, iv measured upto 72 hrs; type: ADME, organism-based, Canis lupus familiaris; details: in vivo
[33] = Tmax in Beagle dog at 3 mg/kg, po or 1 mg/kg, iv measured upto 72 hrs; type: ADME, organism-based, Canis lupus familiaris; details: in vivo
[34] = Cmax in Beagle dog at 3 mg/kg, po or 1 mg/kg, iv measured upto 72 hrs; type: ADME, organism-based, Canis lupus familiaris; parameters: time < 72 hrs, dose 3 mg/kg, route po; details: in vivo
[35] = Volume of distribution at steady state in Sprague-Dawley rat at 3 mg/kg, po or 1 mg/kg, iv measured upto 24 hrs; type: ADME, organism-based; details: in vivo

Calcium/calmodulin-dependent protein kinase kinase 2, sequence (Q96RR4 whole entry): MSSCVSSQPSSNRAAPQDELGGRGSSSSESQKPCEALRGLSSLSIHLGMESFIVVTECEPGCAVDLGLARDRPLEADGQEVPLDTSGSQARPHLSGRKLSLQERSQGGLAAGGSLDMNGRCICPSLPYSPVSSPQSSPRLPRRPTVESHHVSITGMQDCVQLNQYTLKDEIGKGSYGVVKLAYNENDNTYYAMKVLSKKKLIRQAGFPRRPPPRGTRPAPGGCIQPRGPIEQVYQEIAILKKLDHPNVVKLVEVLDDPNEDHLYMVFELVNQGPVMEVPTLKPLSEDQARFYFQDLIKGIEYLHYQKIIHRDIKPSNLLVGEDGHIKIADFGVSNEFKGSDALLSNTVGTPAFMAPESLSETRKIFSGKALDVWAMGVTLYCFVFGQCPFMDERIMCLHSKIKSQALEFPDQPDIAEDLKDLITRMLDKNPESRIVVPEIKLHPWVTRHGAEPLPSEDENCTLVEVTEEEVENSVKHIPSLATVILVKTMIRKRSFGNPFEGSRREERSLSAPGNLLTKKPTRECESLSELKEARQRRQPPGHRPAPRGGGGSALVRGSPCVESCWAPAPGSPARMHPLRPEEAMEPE

EC50 [1]: 510 nM
SMILES: Cc1ncsc1-c1ccc(CNC(=O)[C@@H]2C[C@@H](O)CN2C(=O)[C@@H](NC(=O)CCCCCCCOc2ccc3c(-c4ccc(C(=O)O)c(C5CCCC5)c4)ncnc3c2)C(C)(C)C)cc1

IC50 [2]: 54 nM
SMILES: CCOc1cc2ncnc(-c3ccc(C(=O)O)c(C4CCCC4)c3)c2cc1F

EC50 [1]: > 10000 nM
SMILES: Cc1ncsc1-c1ccc(CNC(=O)[C@@H]2C[C@@H](O)CN2C(=O)[C@@H](NC(=O)CCCCCOc2ccc3c(-c4ccc(C(=O)O)c(C5CCCC5)c4)ncnc3c2)C(C)(C)C)cc1

EC50 [1]: 4500 nM
SMILES: Cc1ncsc1-c1ccc(CNC(=O)[C@@H]2C[C@@H](O)CN2C(=O)[C@@H](NC(=O)CCCCCCCCCCCOc2ccc3c(-c4ccc(C(=O)O)c(C5CCCC5)c4)ncnc3c2)C(C)(C)C)cc1

The next lines start with the compound.

SMILES: Cc1ncsc1-c1ccc(CNC(=O)[C@@H]2C[C@@H](O)CN2C(=O)[C@@H](NC(=O)CCCCCCOc2ccc3c(-c4ccc(C(=O)O)c(C5CCCC5)c4)ncnc3c2)C(C)(C)C)cc1
EC50 [1]: 2000 nM

SMILES: CCOc1cc2ncnc(-c3ccc(C(=O)O)c(C(C)C)c3)c2cc1F
IC50 [2]: 11 nM

SMILES: Cc1ncsc1-c1ccc(CNC(=O)[C@@H]2C[C@@H](O)CN2C(=O)[C@@H](NC(=O)CCCCCCCCOc2ccc3c(-c4ccc(C(=O)O)c(C5CCCC5)c4)ncnc3c2)C(C)(C)C)cc1
EC50 [1]: 620 nM

SMILES: Cc1ncsc1-c1ccc(CNC(=O)[C@@H]2C[C@@H](O)CN2C(=O)[C@@H](NC(=O)CCCCCCCCCCOc2ccc3c(-c4ccc(C(=O)O)c(C5CCCC5)c4)ncnc3c2)C(C)(C)C)cc1
EC50 [1]: 530 nM

SMILES: CCOc1ccc2c(-c3ccc(C(=O)O)c(C(C)C)c3)ncnc2c1
IC50 [2]: 47 nM

SMILES: Cc1ncsc1-c1ccc(CNC(=O)[C@@H]2C[C@@H](O)CN2C(=O)[C@@H](NC(=O)CCCCCCCCCOc2ccc3c(-c4ccc(C(=O)O)c(C5CCCC5)c4)ncnc3c2)C(C)(C)C)cc1
bioavailability [3]: 100%
half-life [4]: 8.1 h
Cmax [5]: 3.21 µM
IC50 [2]: 94 nM
Tmax [6]: 0.5 h
AUC(0-t) at 72 h [7]: 39.9 µM·h
Tmax [8]: 0.5 h
EC50 (A-427): > 8000 nM
half-life [9]: 24 h
AUC(0-t) at 72 h [10]: 3.96 µM·h
Kd [11]: 130 nM
bioavailability [12]: 18%
Cmax [13]: 7.18 µM

SMILES: CCOc1cc(F)c2c(-c3ccc(C(=O)O)c(C(C)C)c3)ncnc2c1
AUC(0-t) at 24 h [14]: 58 µM·h
AUC(0-t) at 72 h [15]: 79 µM·h
fraction unbound [16]: 0.007
bioavailability [17]: 68%
fraction unbound at 72 h [18]: 0.003
fraction unbound [19]: 0.012
Cmax [20]: 28 µM
half-life [21]: 20 h
IC50 [2]: 12 nM
Vdss [22]: 0.44 L/kg
Tmax [23]: 1.7 h
half-life [24]: 4.9 h
bioavailability [25]: 95%
fraction unbound [26]: 0.02
AUC(0-t) at 72 h [27]: 282 µM·h
Tmax [28]: 3 h
bioavailability [29]: 80%
Cmax [30]: 19 µM
IC50 [31]: > 30000 nM
half-life [32]: 11 h
Tmax [33]: 0.5 h
Cmax [34]: 30 µM
Vdss [35]: 0.57 L/kg

SMILES: Cc1ncsc1-c1ccc(CNC(=O)[C@@H]2C[C@@H](O)CN2C(=O)[C@@H](N(C)C(=O)CCCCCCCCCOc2ccc3c(-c4ccc(C(=O)O)c(C5CCCC5)c4)ncnc3c2)C(C)(C)C)cc1
EC50 [1]: > 10000 nM

From ChEMBL document CHEMBL5375964, “Identification of Small Molecule Inhibitors and Ligand Directed Degraders of Calcium/Calmodulin Dependent Protein Kinase Kinase 1 and 2 (CaMKK1/2)” (J Med Chem, 2023)
